In brackets after ≈: the same amount, converted by molar mass.
What was measured:
[1] = target: T1, canine P-glycoprotein (Canis lupus familiaris, UniProt C0KKU9); assay: P-glycoprotein competitive transport assay (rhodamine 123, MDCK PGP cells); type: in vitro ADME; details: highest concentration tested, 1,000 ng/mL
T1 construct: host or cells: MDCK PGP cells (canine P-gp expressing cell line)
Protocol: In this second study, a competitive P-gp substrate assay incorporating a canine P-gp expressing cell line is used to assess each test compound's ability to compete with the P-gp substrate rhodamine 123. Each concentration is tested on 3 separate days with same-day duplicates. Positive controls and negative controls are included in each run.
Results for each concentration of test compound evaluated are reported as non-P-gp substrate, weak P-gp substrate, moderate P-gp substrate, or strong P-gp substrate. The concentrations for CBD and CBDA are as follows: 10 ng/mL, 100 ng/mL and 1,000 ng/mL.
A competitive P-gp substrate assay using a canine P-gp expressing cell line was used to assess CBDA and/or CBD as a substrate for canine P-glycoprotein.

[2] = system: D17 osteosarcoma cell line; assay: 48 hours MTT proliferation assay, D17; type: cell-based, canine; details: pure compound
Protocol: (§1) 3-(4,5-Dimethylthaizol-2-yl)-2,5-diphenyltetrazolium bromide (MTT) assays are performed on all previously described cell lines; CMT12, HMPOS, D17, Abrams and 17-71. […] Cells are treated with vehicle (methanol or ethanol/DMSO mix) or various concentrations of the CBD, CBDA or CBD-rich hemp extract ranging from 0.42 to 20 μg/mL in serial dilution for 48 hours. MTT assays are performed after 48 hours of treatment by adding 20 μL of MTT dye ([…] filtered 5 mg/mL in phosphate-buffered saline [PBS]) to each well and incubating at 37° C. in 5% CO2 for 2 hours. The media is then aspirated, washed once with 200 μL of PBS and then solubilized in 200 μL of ethanol. Immediate analysis of the optical density of each well is performed using a spectrophotometric plate reader (Epoch; Biotek, Winooski, Vermont) at a wavelength of 570 nm as previously described (e.g., Vega-Avila E and Pugsley M K, An overview of colorimetric assay methods used to assess survival or proliferation of mammalian cells, Proc West Pharmacol Soc., 2011, 54, pp. 10-14 which is incorporated herein by reference in its entirety). The percent proliferating cells of control for each concentration is averaged and reported as a mean+/—SD from triplicate wells over three experiments.
(§2) For CBD, CBDA and hemp extract concentrations needed to obtain a 50% inhibition of cell proliferation (IC50) are then calculated across experiments by Probit analysis using XLFit5 software (IDBS, Guildford, United Kingdom) for reporting the results for each cell line.

[3] = system: Abrams osteosarcoma cell line; assay: 48 hours MTT proliferation assay, Abrams; type: cell-based, canine; details: pure compound
Protocol: as §1, §2

[4] = target: T2, CYP2D15 (Canis lupus familiaris, UniProt Q29473); assay: CYP2D15 activity inhibition in pooled dog liver microsomes; type: in vitro ADME; details: no preincubation vs 20 min preincubation, 10 μM
T2 construct: P450-specific marker activities in pooled dog liver microsomes; from tissue; host or cells: pooled dog liver microsomes
T2 sequence (Q29473 1-500): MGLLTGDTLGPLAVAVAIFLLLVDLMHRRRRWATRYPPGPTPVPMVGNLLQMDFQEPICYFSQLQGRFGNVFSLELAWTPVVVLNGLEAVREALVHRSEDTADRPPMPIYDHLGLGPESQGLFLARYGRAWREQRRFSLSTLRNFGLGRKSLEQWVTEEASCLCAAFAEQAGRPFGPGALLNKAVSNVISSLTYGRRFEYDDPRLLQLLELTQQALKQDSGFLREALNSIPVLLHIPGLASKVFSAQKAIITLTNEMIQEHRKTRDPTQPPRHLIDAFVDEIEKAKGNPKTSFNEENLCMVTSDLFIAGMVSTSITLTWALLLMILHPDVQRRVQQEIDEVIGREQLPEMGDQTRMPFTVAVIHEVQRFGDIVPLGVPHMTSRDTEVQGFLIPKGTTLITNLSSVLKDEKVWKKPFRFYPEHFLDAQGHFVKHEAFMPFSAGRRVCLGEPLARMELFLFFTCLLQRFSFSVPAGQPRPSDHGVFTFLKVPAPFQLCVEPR
Protocol: Inhibition potency (i.e. IC50) is determined by measuring the decrement in metabolism of P450-specific marker activities in pooled dog liver microsomes with increasing concentrations of CBD, CBDA, and hemp extracts. P450-specific markers include bupropion 6-hydroxylation (CYP2B11), dextromethorphan 0-demethylation (CYP2D15) and omeprazole sulfoxidation (CYP3A12). IC50 values are determined both with and without preincubation of liver microsomes with potential inhibitor to evaluate whether there is mechanism-based time-dependent inhibition.
The following parameters are assessed: (1) the rates of CBD and CBDA metabolism by dog liver microsomes and by 11 recombinant canine P450 enzymes; (2) the predicted percent contribution of each P450 to total CBD and CBDA metabolism in dog liver; and (3) IC50 values for inhibition of CYP2B11, CYP2D15 and CYP3A12 metabolism in dog liver, both with and without inhibitor preincubation.

[5] = system: CMT12 mammary gland carcinoma cell line; assay: 48 hours MTT proliferation assay, CMT12; type: cell-based, canine; details: pure compound
Protocol: as §1, §2

[6] = system: CMT12 and D17 cells; assay: LC3A/B immunofluorescence; type: cell-based, canine; details: 10 μg/mL CBD, 6 hours
Protocol: CMT12 and D17 adherent cell lines are split into Nunc chamber slides (ThermoFisher Scientific, Rochester, New York) and the cells that are 70% confluent are treated for 6 hours with either methanol control or 10 μg/mL of CBD. Cells are fixed with 4% paraformaldehyde for 1 hour and then permeabilized with PBS containing 0.1% Triton X-100 for 30 minutes. Cells are then washed with PBS and incubated with bovine serum albumin (Sigma Aldrich, St. Louis, Missouri) for 30 minutes and then goat anti-serum (Vector Labs, Burlingame, California) for 1 hour and then washed twice with PBS for 10 minutes while rocking at room temperature. […] Coverslips are mounted using Vectrashield DAPI mounting media (Vector Labs, Burlingame, California) and the images are captured at the same fluorescence intensity for each image at 400 or 600 magnification and processed using an Olympus fluorescent microscope and DP controller software (Olympus Corp., Center Valley, Pennsylvania).

[7] = Canis lupus familiaris, read-out: IC50 (Probit)

T1 sequence (C0KKU9 1-1281): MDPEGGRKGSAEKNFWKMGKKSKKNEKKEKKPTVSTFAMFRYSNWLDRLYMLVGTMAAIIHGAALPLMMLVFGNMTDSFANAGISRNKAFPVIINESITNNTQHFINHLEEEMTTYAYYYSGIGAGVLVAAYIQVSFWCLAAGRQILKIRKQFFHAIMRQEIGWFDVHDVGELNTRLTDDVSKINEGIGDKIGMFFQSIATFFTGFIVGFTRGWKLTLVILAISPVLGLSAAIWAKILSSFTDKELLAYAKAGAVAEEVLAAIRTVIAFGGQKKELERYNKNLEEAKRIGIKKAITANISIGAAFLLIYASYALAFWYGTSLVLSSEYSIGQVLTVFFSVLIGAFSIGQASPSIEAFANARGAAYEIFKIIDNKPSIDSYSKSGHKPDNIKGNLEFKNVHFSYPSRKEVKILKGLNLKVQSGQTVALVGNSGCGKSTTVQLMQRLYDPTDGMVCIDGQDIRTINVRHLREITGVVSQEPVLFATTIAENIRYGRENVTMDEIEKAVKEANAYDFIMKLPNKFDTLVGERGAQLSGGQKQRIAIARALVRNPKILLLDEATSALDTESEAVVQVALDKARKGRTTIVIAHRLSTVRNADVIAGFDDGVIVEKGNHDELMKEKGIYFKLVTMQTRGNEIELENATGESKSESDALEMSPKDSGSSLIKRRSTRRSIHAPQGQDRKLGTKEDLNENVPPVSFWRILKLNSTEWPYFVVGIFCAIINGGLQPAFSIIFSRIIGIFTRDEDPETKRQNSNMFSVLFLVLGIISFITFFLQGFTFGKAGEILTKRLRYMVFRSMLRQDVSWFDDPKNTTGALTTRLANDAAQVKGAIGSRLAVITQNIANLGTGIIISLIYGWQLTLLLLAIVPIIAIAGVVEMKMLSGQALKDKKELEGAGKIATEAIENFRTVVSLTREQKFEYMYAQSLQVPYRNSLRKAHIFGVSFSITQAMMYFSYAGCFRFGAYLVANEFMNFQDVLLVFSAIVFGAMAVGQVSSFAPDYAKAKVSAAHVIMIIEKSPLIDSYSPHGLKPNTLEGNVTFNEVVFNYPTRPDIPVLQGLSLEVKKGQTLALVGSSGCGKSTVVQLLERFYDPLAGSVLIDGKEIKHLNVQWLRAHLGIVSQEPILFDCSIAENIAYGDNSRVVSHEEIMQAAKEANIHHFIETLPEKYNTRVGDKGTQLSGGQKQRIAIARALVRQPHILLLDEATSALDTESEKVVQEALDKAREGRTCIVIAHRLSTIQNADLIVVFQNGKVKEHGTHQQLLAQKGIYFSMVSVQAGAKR

Structure (SMILES): C=C(C)[C@@H]1CCC(C)=C[C@H]1c1c(O)cc(CCCCC)cc1O [CBD, cannabidiol]
- P-gp substrate classification [1]: not a substrate for canine PGP
- IC50 [2, 7]: 4.1 µg/mL (≈ 13 µM)
- concentrations that significantly diminished proliferation vs vehicle control ([2]; P<0.05): ≥ 5 µg/mL
- IC50 [3, 7]: 4.1 µg/mL (≈ 13 µM)
- concentrations that significantly diminished proliferation vs vehicle control ([3]; P<0.05): ≥ 5 µg/mL
- time-dependent inhibition (TDI) [4]: showed time-dependent inhibition (TDI)
- IC50 [5, 7]: 3.5 µg/mL (≈ 11.1 µM)
- concentrations that significantly diminished proliferation vs vehicle control ([5]; P<0.05): ≥ 2.5 µg/mL
- LC3A/B immunofluorescence [6]: numerous discrete punctate intensely staining vesicles

From patent US20240075087A1, “COMPOSITIONS AND METHODS COMPRISING HEMP EXTRACT FOR THE TREATMENT OF ANIMALS IN NEED” (Portland Technology Holdings LLC, priority 2021, published 2024)
